Assay results: US8796256B2 (Janssen Pharmaceutica NV, priority 2010, dated 2014)

Molecular target: T1, ERR1 (also known as ERR-α or ERR-1) (Homo sapiens, UniProt P11474)
T1 sequence (P11474 193-421 limits assumed): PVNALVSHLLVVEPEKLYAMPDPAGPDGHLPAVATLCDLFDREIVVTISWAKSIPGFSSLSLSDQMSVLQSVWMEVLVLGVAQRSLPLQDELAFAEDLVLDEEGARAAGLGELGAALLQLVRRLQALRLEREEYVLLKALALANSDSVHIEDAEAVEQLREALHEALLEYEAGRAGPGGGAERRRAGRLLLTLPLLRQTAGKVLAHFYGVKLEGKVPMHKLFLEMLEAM
Assay: TR-FRET assay (disruption of co-activator peptide binding to ERR1 LBD)
Assay type: biochemical
Settings: 6 nM 6His-ERR1LBD, 6 nM GST-SRC-2 peptide; average of 3 independent experiments
Procedure, shortened: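 His-tagged ERR1 ligand-binding domain and GST-labelled SRC-2 peptide, each 6 nM, equilibrated at 25° C for 4-18 h in Tris pH 8/Hepes/KCl/DTT/delipidated BSA buffer. Compound-induced loss of co-activator binding read as Eu cryptate→XL665 energy transfer; values from hyperbolic curve fits averaged over 3 independent runs.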

| EC50 | SMILES |
| --- | --- |
| 14 nM | O=C1S/C(=C\c2ccc3c(cnn3Cc3ccc(Cl)cc3C(F)(F)F)c2)C(=O)N1Cc1cscn1 [Compound 93] |
| 30 nM | O=C(O)CN1CCC[C@H]1CN1C(=O)S/C(=C\c2ccc3c(cnn3Cc3ccc(Cl)cc3C(F)(F)F)c2)C1=O [Compound 151, [(2S)-2-{[(5Z)-5-({1-[4-Chloro-2-(trifluoromethyl)benzyl]-1H-indazol-5-yl}methylidene)-2,4-dioxo-1,3-thiazolidin-3-yl]methyl}pyrrolidin-1-yl]acetic acid] |
| 26 nM | O=C1S/C(=C\c2ccc3c(cnn3Cc3ccc(Cl)cc3C(F)(F)F)c2)C(=O)N1N1CCOCC1 [Compound 359, (5Z)-5-({1-[4-Chloro-2-(trifluoromethyl)benzyl]-1H-indazol-5-yl}methylidene)-3-morpholin-4-yl-1,3-thiazolidine-2,4-dione] |
| 34 nM | NS(=O)(=O)CN1C(=O)S/C(=C\c2ccc3c(cnn3Cc3ccc(Cl)cc3C(F)(F)F)c2)C1=O [Compound 165, 1-[(5Z)-5-({1-[4-Chloro-2-(trifluoromethyl)benzyl]-1H-indazol-5-yl}methylidene)-2,4-dioxo-1,3-thiazolidin-3-yl]methanesulfonamide] |
| 152 nM | O=C1S/C(=C\c2ccc3c(cnn3Cc3ccc(Cl)cc3C(F)(F)F)c2)C(=O)N1CCc1cccnc1 [Compound 109, (5Z)-5-({1-[4-Chloro-2-(trifluoromethyl)benzyl]-1H-indazol-5-yl}methylidene)-3-(2-pyridin-3-ylethyl)-1,3-thiazolidine-2,4-dione] |
| 153 nM | O=C1S/C(=C\c2ccc3c(cnn3Cc3ccc(F)cc3C(F)(F)F)c2)C(=O)N1[C@@H]1CCNC[C@H]1O (relative stereo) [Compound 272, (5Z)-5-({1-[4-Fluoro-2-(trifluoromethyl)-benzyl]-1H-indazol-5-yl}methylidene)-3-[trans-3-hydroxypiperidin-4-yl]-1,3-thiazolidine-2,4-dione] |
| 24 nM | O=C1S/C(=C\c2ccc3c(cnn3Cc3ccc(Cl)cc3C(F)(F)F)c2)C(=O)N1Cc1nccs1 [Compound 92, (5Z)-5-({1-[4-Chloro-2-(trifluoromethyl)benzyl]-1H-indazol-5-yl}methylidine)-3-(1,3-thiazol-2-ylmethyl)-1,3-thiazolidine-2,4-dione] |
| 49 nM | NC(=O)CN1CCC[C@@H]1CN1C(=O)S/C(=C\c2ccc3c(cnn3Cc3ccc(Cl)cc3C(F)(F)F)c2)C1=O [Compound 298, 2-[(2R)-2-{[(5Z)-5-({1-[4-Chloro-2-(trifluoromethyl)benzyl]-1H-indazol-5-yl}methylidene)-2,4-dioxo-1,3-thiazolidin-3-yl]methyl}pyrrolidin-1-yl]acetamide] |
| 160 nM | COCCN1CCO[C@H](CN2C(=O)S/C(=C\c3ccc4c(cnn4Cc4ccc(Cl)cc4C(F)(F)F)c3)C2=O)C1 [Compound 189, (5Z)-5-({1-[4-Chloro-2-(trifluoromethyl)benzyl]-1H-indazol-5-yl}methylidene)-3-{[(2S)-4-(2-methoxyethyl)morpholin-2-yl]methyl}-1,3-thiazolidine-2,4-dione] |
| 25 nM | O=C(O)[C@@H]1C[C@@H](N2C(=O)S/C(=C\c3ccc4c(cnn4Cc4ccc(Cl)cc4C(F)(F)F)c3)C2=O)CN1 [Compound 181, (4R)-4-[(5Z)-5-({1-[4-Chloro-2-(trifluoromethyl)benzyl]-1H-indazol-5-yl}methylidene)-2,4-dioxo-1,3-thiazolidin-3-yl]-L-proline] |
| 3450 nM | O=C(O)CN1C(=O)S/C(=C\c2ccc3c(cnn3[C@@H]3CCc4cc(Cl)ccc43)c2)C1=O [Compound 179, [(5Z)-5-({1-[(1R)-5-Chloro-2,3-dihydro-1H-inden-1-yl]-1H-indazol-5-yl}methylidene)-2,4-dioxo-1,3-thiazolidin-3-yl]acetic acid] |
| 54 nM | CN1C[C@@H](N2C(=O)S/C(=C\c3ccc4c(cnn4Cc4ccc(Cl)cc4C(F)(F)F)c3)C2=O)[C@@H](F)C1 (relative stereo) [Compound 323, (5Z)-5-({1-[4-Chloro-2-(trifluoromethyl)benzyl]-1H-indazol-5-yl}methylidene)-3-[cis-4-fluoro-1-methylpyrrolidin-3-yl]-1,3-thiazolidine-2,4-dione] |
| 46 nM | CC1(C)OCC(CN2C(=O)S/C(=C\c3ccc4c(cnn4Cc4ccc(Cl)cc4C(F)(F)F)c3)C2=O)O1 (centres unmarked) [Compound 42, (5Z)-5-({1-[4-Chloro-2-(trifluoromethyl)benzyl]-1H-indazol-5-yl}methylidene)-3-[(2,2-dimethyl-1,3-dioxolan-4-yl)methyl]-1,3-thiazolidine-2,4-dione] |
| 46 nM | COc1ccc(Cn2ncc3cc(/C=C4\SC(=O)N(CCN5CCCC5)C4=O)ccc32)c(C(F)(F)F)c1 [Compound 17, (5Z)-5-({1-[4-Methoxy-2-(trifluoromethyl)benzyl]-1H-indazol-5-yl}methylidene)-3-(2-pyrrolidin-1-ylethyl)-1,3-thiazolidine-2,4-dione] |
| 20 nM | NN1C(=O)S/C(=C\c2ccc3c(cnn3Cc3ccc(Cl)cc3C(F)(F)F)c2)C1=O [Compound 355, (5Z)-3-Amino-5-({1-[4-chloro-2-(trifluoromethyl)benzyl]-1H-indazol-5-yl}methylidene)-1,3-thiazolidine-2,4-dione] |
| 83 nM | Cc1nn(C)c(Cl)c1S(=O)(=O)NCCN1C(=O)S/C(=C\c2ccc3c(cnn3Cc3ccc(Cl)cc3C(F)(F)F)c2)C1=O [Compound 418, 5-Chloro-N-{2-[(5Z)-5-({1-[4-chloro-2-(trifluoromethyl)benzyl]-1H-indazol-5-yl}methylidene)-2,4-dioxo-1,3-thiazolidin-3-yl]ethyl}-1,3-dimethyl-1H-pyrazole-4-sulfonamide] |
| 92 nM | O=C1S/C(=C\c2ccc3c(cnn3Cc3ccc(Cl)cc3C(F)(F)F)c2)C(=O)N1C1(C(=O)O)CC1 [Compound 89, 1-[(5Z)-5-({1-[4-Chloro-2-(trifluoromethyl)benzyl]-1H-indazol-5-yl}methylidene)-2,4-dioxo-1,3-thiazolidin-3-yl]cyclopropanecarboxylic acid] |
| 46 nM | O=C(CN1C(=O)S/C(=C\c2ccc3c(c2)nnn3Cc2ccc(Cl)cc2C(F)(F)F)C1=O)NS(=O)(=O)N1CCCC1 [Compound 268, 2-[(5Z)-5-({1-[4-Chloro-2-(trifluoromethyl)benzyl]-1H-benzotriazol-5-yl}methylidene)-2,4-dioxo-1,3-thiazolidin-3-yl]-N-(pyrrolidin-1-ylsulfonyl)acetamide] |
| 99 nM | COC(=O)C1(N2C(=O)S/C(=C\c3ccc4c(cnn4Cc4ccc(Cl)cc4C(F)(F)F)c3)C2=O)CCC1 [Compound 234, Methyl 1-[(5Z)-5-({1-[4-chloro-2-(trifluoromethyl)benzyl]-1H-indazol-5-yl}methylidene)-2,4-dioxo-1,3-thiazolidin-3-yl]cyclobutanecarboxylate] |
| 48 nM | CCN1CC[C@@H](N2C(=O)S/C(=C\c3ccc4c(c3)c(C)nn4Cc3ccc(Cl)cc3C(F)(F)F)C2=O)[C@H](F)C1 (relative stereo) [Compound 334, (5Z)-5-({1-[4-Chloro-2-(trifluoromethyl)benzyl]-3-methyl-1H-indazol-5-yl}methylidene)-3-[trans-1-ethyl-3-fluoropiperidin-4-yl]-1,3-thiazolidine-2,4-dione] |
| 46 nM | Nc1nc(CN2C(=O)S/C(=C\c3ccc4c(cnn4Cc4ccc(Cl)cc4C(F)(F)F)c3)C2=O)c[nH]1 [Compound 231, (5Z)-3-[(2-Amino-1H-imidazol-4-yl)methyl]-5-({1-[4-chloro-2-(trifluoromethyl)benzyl]-1H-indazol-5-yl}methylidene)-1,3-thiazolidine-2,4-dione] |
| 6000 nM | COC(=O)CN1C(=O)S/C(=C\c2ccc3c(cnn3[C@@H]3CCc4cc(Cl)ccc43)c2)C1=O [Compound 177, Methyl [(5Z)-5-({1-[(1R)-5-chloro-2,3-dihydro-1H-inden-1-yl]-1H-indazol-5-yl}methylidene)-2,4-dioxo-1,3-thiazolidin-3-yl]acetate] |
| 74 nM | CN1CCC(C(=O)O)(N2C(=O)S/C(=C\c3ccc4c(cnn4Cc4ccc(Cl)cc4C(F)(F)F)c3)C2=O)CC1 [Compound 220, 4-[(5Z)-5-({1-[4-Chloro-2-(trifluoromethyl)benzyl]-1H-indazol-5-yl}methylidene)-2,4-dioxo-1,3-thiazolidin-3-yl]-1-methylpiperidine-4-carboxylic acid] |
| 40 nM | CN1CCC(=O)C(N2C(=O)S/C(=C\c3ccc4c(cnn4Cc4ccc(Cl)cc4C(F)(F)F)c3)C2=O)C1 (centres unmarked) [Compound 344, (5Z)-5-({1-[4-Chloro-2-(trifluoromethyl)benzyl]-1H-indazol-5-yl}methylidene)-3-(1-methyl-4-oxopiperidin-3-yl)-1,3-thiazolidine-2,4-dione] |
| 72 nM | COc1ccc(Cn2ncc3cc(/C=C4\SC(=O)N(CCN5CCN(C)CC5)C4=O)ccc32)c(C(F)(F)F)c1 [Compound 12, (5Z)-5-[(1-{[4-(Methyloxy)-2-(trifluoromethyl)phenyl]methyl}-1H-indazol-5-yl)methylidene]-3-[2-(4-methylpiperazin-1-yl)ethyl]-1,3-thiazolidine-2,4-dione] |
| 14 nM | COc1ccc(Cn2nc(C)c3cc(/C=C4\SC(=O)N(CCN5CCOCC5)C4=O)ccc32)c(C(F)(F)F)c1 [Compound 20, (5Z)-5-({1-[4-Methoxy-2-(trifluoromethyl)benzyl]-3-methyl-1H-indazol-5-yl}methylidene)-3-(2-morpholin-4-ylethyl)-1,3-thiazolidine-2,4-dione] |
